Experimental data as given in patent US11337975B2, “Pharmaceutical combinations comprising a histone deacetylase inhibitor and a CD38 inhibitor and methods of use thereof” (Acetylon Pharmaceuticals, Inc., priority 2016, dated 2022).

Experiments:
Format in all cases: cell-based
[1] = tested on: RPMI-8226 multiple myeloma cells; experiment: CD38 surface level by FACS, RPMI-8226 cells; conditions: various doses, 48 hours, FACS (FIG. 1A)
[2] = tested on: MM.1S multiple myeloma cells; experiment: CD38 surface level by FACS, MM.1S cells; conditions: various doses, 48 hours, FACS (FIG. 1B)
[3] = tested on: H929 multiple myeloma cells; experiment: Anti-CD38 antibody-dependent cell-mediated cytotoxicity (Calcein-AM) in H929 cells; conditions: 0.5 μM-2 μM for 24 hours
Procedure: Multiple myeloma cells were incubated with Calcein-AM (Invitrogen, 2 μg/ml/1 million cells) for 30 min at 37° C. After washing, the cells were used for target cells. Mononuclear cells were obtained from healthy volunteer peripheral blood by Ficoll-Paque density centrifugation and used for effector cells. Both target and effector cells (E/T=15-20) were incubated for 3-4 h and culture supernatant were subjected to measurement of fluorescence using a 490 nm excitation filter and a 520 emission filter. Percent specific lysis was calculated as follows, % specific lysis=[experiment fluorescence−spontaneous fluorescence (no effector)]/[complete lysis (100% killing by detergent)−spontaneous fluorescence (no effector)]×100 Flow Cytometry-Based Ex Vivo ADCC Assay
Cells were stained with Calcein-AM and incubated with peripheral blood mononuclear cells at a ratio of 20:1 for 3 hours.

[4] = tested on: patient-derived multiple myeloma cells; experiment: Ex vivo anti-CD38 ADCC in autologous setting, patients' bone marrow aspirates; conditions: anti-CD38 antibody 0.5 μg/ml with or without Compound B 0.5 μM, 72 hours (FIG. 3A)
Procedure: After bone marrow aspiration, fresh bone marrow mononuclear cells (MNC) were obtained by ammonium chloride based-lyses of red cells followed by washing in phosphate-buffered saline (PBS). […] The cells were incubated for 72 h at 37° C. in 5% CO2. The viability of primary MM cells in BM MNC was determined by near infrared (n-IR) viability dyes. The surviving CD138+MM cells were enumerated in the presence of Flow-Count Fluorospheres (Beckman Coulter, CA, USA), to determine absolute numbers of viable MM cells. The percentage of daratumumab-mediated ADCC was then calculated using the following formula: % lysis cells=100−[(absolute number of surviving CD138+ cells in the presence of daratumumab/absolute number of surviving CD138+ cells in the presence of control antibody)×100%]. Phenotypic analyses of MNC were performed using a single 5-color combination of monoclonal antibodies containing CD138-PE/CD38-APC/n-IR-viability (BioLegend, San Diego, Calif., USA). Plasma cells in BM MNC were identified by CD138-PE and CD38-APC staining, and expression of CD38 on plasma cells were determined (BD Biosciences, San Jose, Calif., USA). After incubation, cells were washed twice in PBS containing 2% BSA, and then resuspended in PBS for analysis on a Fortessa cytometer (Becton Dickinson, Mountain View, Calif.). […]
The average cytotoxicity (mean±SD) was calculated from 6 patients' samples (see also FIG. 3B).

H929 cells = experiment: Anti-CD38 ADCC in CFSE-stained H929 cells with PBMCs, flow cytometry; conditions: pomalidomide 0.1 μM, Compound B 0.25, 0.5, 1 μM, 72 h, then anti-CD38 antibody 0.5 μg/ml 3 hours (FIG. 6)
Procedure: The cells were then incubated with an anti-CD38 antibody (0.5 μg/ml) for 3 hours. Cytotoxicity was assessed by flow cytometry.

SMILES	percentage of CD38 positive cells [1]	percentage of CD38 positive cells [2]	Percent specific lysis ([3]; PBMC 20:1 for 3 hours (FIG. 2A))	percent augmentation ([3]; PBMC 20:1 for 3 hours (FIG. 2B))	anti-CD38 antibody dependent cell mediated cytotoxicity [4]	anti-CD38 antibody-induced cytotoxicity (ADCC) (H929 cells)
O=C(CCCCCCNC(=O)c1cnc(N(c2ccccc2)c2ccccc2)nc1)NO [Compound A, 2-(diphenylamino)-N-(7-(hydroxyamino)-7-oxoheptyl)pyrimidine-5-carboxamide]	increased	increased	increased as concentration of Compound A increased	increased as concentration of Compound A increased		
O=C(CCCCCCNC(=O)c1cnc(N(c2ccccc2)c2ccccc2Cl)nc1)NO [Compound B, 2-((2-chlorophenyl)(phenyl)amino)-N-(7-(hydroxyamino)-7-oxoheptyl)pyrimidine-5-carboxamide]	increased	increased			increased	enhanced
